This note sets out measurements from publication PMC9284491 (Nature Communications, 2022).

This data set can be described thus: Dose-limiting toxicities, MTD and RP2D in dose escalation. In kind it is in vivo. The procedure: During dose escalation, treatment was initiated on day 1 in the fasting state in cohorts starting at a dose of 20 mg orally QD, escalating in subsequent cohorts to planned doses of 50–600 mg. For all cohorts, treatment was omitted on day 2, was administered on day 3 after a moderate fat breakfast, and was administered from day 4 in the fasting state. Dose escalation proceeded based on the occurrence of DLT together with target saturation by ^18F-FES PET/CT scans[45] and pharmacokinetic parameters during the first 28-day cycle, and according to a 3 + 3 design. […] During dose expansion, patients were treated at the RP2D. Patients were treated until disease progression, unacceptable toxicity, withdrawal of patient consent, or other reasons determined by the investigator (poor compliance with the protocol or intercurrent illness). […]
Analysis populations and associated statistical methods. […] Results were analyzed using descriptive statistics. […]

SMILES strings stand for the structures.

For the compound `O=C(O)c1ccc2c(c1)CCCC(c1ccc(Cl)cc1Cl)=C2c1ccc(O[C@H]2CCN(CCCF)C2)cc1` [amcenestrant, 6-(2,4-Dichlorophenyl)−5-[4-[(3S)−1-(3-fluoropropyl)pyrrolidin-3-yl]oxyphenyl]−8,9-dihydro-7H-benzo[7]annulene-2-carboxylic acid], where the note is “Part A, 20-600 mg QD”, the “maximum tolerated dose (MTD)” value is “not reached”. The dose-limiting toxicities entry (in vivo) is “No dose-limiting toxicities occurred”.
